# Numbers after ± are expanded uncertainties.
# Assay: xn = mol fraction of the nth substance listed
# Settings: Gas, Buoyancy - hydrostatic balance with magnetic suspension - one sinker
compound,measurement,setting,value
"C=C(F)C(F)(F)F [2,3,3,3-tetrafluoro-1-propene] + CCC",mass density,"285.37 K, 311 kPa, x1 = 0.8116",14.287 ± 0.071 kg/m3
same,mass density,"285.38 K, 402.5 kPa, x1 = 0.0906",9.29 ± 0.04 kg/m3
same,mass density,"285.38 K, 413.6 kPa, x1 = 0.8116",19.58 ± 0.081 kg/m3
same,mass density,"285.39 K, 494.1 kPa, x1 = 0.0906",11.653 ± 0.045 kg/m3
same,mass density,"290.25 K, 583.7 kPa, x1 = 0.583",23.524 ± 0.083 kg/m3
same,mass density,"290.38 K, 102.2 kPa, x1 = 1",4.937 ± 0.061 kg/m3
same,mass density,"290.39 K, 184.5 kPa, x1 = 1",9.113 ± 0.063 kg/m3
same,mass density,"290.4 K, 203.9 kPa, x1 = 0.583",7.494 ± 0.05 kg/m3
same,mass density,"290.4 K, 308.8 kPa, x1 = 1",15.792 ± 0.067 kg/m3
same,mass density,"290.4 K, 421.2 kPa, x1 = 1",22.298 ± 0.07 kg/m3
same,mass density,"290.41 K, 103.5 kPa, x1 = 0.583",3.727 ± 0.046 kg/m3
same,mass density,"290.41 K, 300.6 kPa, x1 = 0.583",11.287 ± 0.057 kg/m3
same,mass density,"290.41 K, 403.8 kPa, x1 = 0.583",15.532 ± 0.065 kg/m3
same,mass density,"290.41 K, 496.6 kPa, x1 = 0.583",19.555 ± 0.074 kg/m3
same,mass density,"290.42 K, 102.2 kPa, x1 = 0.2546",2.673 ± 0.033 kg/m3
same,mass density,"290.42 K, 202.4 kPa, x1 = 0.2546",5.395 ± 0.036 kg/m3
same,mass density,"290.42 K, 297.9 kPa, x1 = 0.2546",8.09 ± 0.041 kg/m3
same,mass density,"290.42 K, 393.4 kPa, x1 = 0.2546",10.9 ± 0.047 kg/m3
same,mass density,"290.43 K, 490.8 kPa, x1 = 0.2546",13.893 ± 0.053 kg/m3
same,mass density,"290.44 K, 106.8 kPa, x1 = 0.8116",4.568 ± 0.055 kg/m3
same,mass density,"290.44 K, 199.7 kPa, x1 = 0.8116",8.728 ± 0.06 kg/m3
same,mass density,"290.44 K, 298.5 kPa, x1 = 0.8116",13.363 ± 0.068 kg/m3
same,mass density,"290.44 K, 586.4 kPa, x1 = 0.2546",16.977 ± 0.06 kg/m3
same,mass density,"290.46 K, 104.6 kPa, x1 = 0.0906",2.225 ± 0.027 kg/m3
same,mass density,"290.46 K, 208.6 kPa, x1 = 0.0906",4.52 ± 0.03 kg/m3
same,mass density,"290.46 K, 314.2 kPa, x1 = 0.0906",6.95 ± 0.034 kg/m3
same,mass density,"290.46 K, 380.2 kPa, x1 = 0.8116",17.392 ± 0.076 kg/m3
same,mass density,"290.46 K, 409.5 kPa, x1 = 0.0906",9.237 ± 0.039 kg/m3
same,mass density,"290.46 K, 465.4 kPa, x1 = 0.8116",21.81 ± 0.085 kg/m3
same,mass density,"290.46 K, 539.6 kPa, x1 = 0.0906",12.53 ± 0.046 kg/m3
same,mass density,"295.4 K, 101.7 kPa, x1 = 1",4.829 ± 0.06 kg/m3
same,mass density,"295.4 K, 196.9 kPa, x1 = 1",9.565 ± 0.062 kg/m3
same,mass density,"295.4 K, 400.6 kPa, x1 = 1",20.565 ± 0.07 kg/m3
same,mass density,"295.4 K, 600.7 kPa, x1 = 1",32.885 ± 0.077 kg/m3
same,mass density,"295.41 K, 305.3 kPa, x1 = 1",15.255 ± 0.065 kg/m3
same,mass density,"295.41 K, 510.2 kPa, x1 = 1",27.092 ± 0.074 kg/m3
same,mass density,"295.43 K, 213.4 kPa, x1 = 0.2546",5.607 ± 0.037 kg/m3
same,mass density,"295.44 K, 312 kPa, x1 = 0.2546",8.352 ± 0.041 kg/m3
same,mass density,"295.44 K, 420 kPa, x1 = 0.2546",11.485 ± 0.047 kg/m3
same,mass density,"295.44 K, 526.9 kPa, x1 = 0.2546",14.734 ± 0.055 kg/m3
same,mass density,"295.45 K, 511.2 kPa, x1 = 0.583",19.692 ± 0.074 kg/m3
same,mass density,"295.45 K, 638.2 kPa, x1 = 0.2546",18.298 ± 0.063 kg/m3
same,mass density,"295.46 K, 105.6 kPa, x1 = 0.583",3.727 ± 0.045 kg/m3
same,mass density,"295.46 K, 202.1 kPa, x1 = 0.583",7.273 ± 0.049 kg/m3
same,mass density,"295.46 K, 304.8 kPa, x1 = 0.583",11.205 ± 0.056 kg/m3
same,mass density,"295.46 K, 309.4 kPa, x1 = 0.0906",6.711 ± 0.033 kg/m3
same,mass density,"295.46 K, 410.8 kPa, x1 = 0.583",15.457 ± 0.064 kg/m3
same,mass density,"295.46 K, 411.3 kPa, x1 = 0.0906",9.102 ± 0.038 kg/m3
same,mass density,"295.47 K, 104.2 kPa, x1 = 0.0906",2.174 ± 0.027 kg/m3
same,mass density,"295.47 K, 209.6 kPa, x1 = 0.0906",4.463 ± 0.029 kg/m3
same,mass density,"295.47 K, 517.9 kPa, x1 = 0.0906",11.713 ± 0.044 kg/m3
same,mass density,"295.47 K, 624.6 kPa, x1 = 0.583",24.759 ± 0.085 kg/m3
same,mass density,"295.48 K, 105.6 kPa, x1 = 0.8116",4.43 ± 0.054 kg/m3
same,mass density,"295.48 K, 198.1 kPa, x1 = 0.8116",8.481 ± 0.058 kg/m3
same,mass density,"295.48 K, 304 kPa, x1 = 0.8116",13.338 ± 0.067 kg/m3
same,mass density,"295.48 K, 403.2 kPa, x1 = 0.8116",18.133 ± 0.077 kg/m3
same,mass density,"295.48 K, 629.5 kPa, x1 = 0.0906",14.594 ± 0.051 kg/m3
same,mass density,"295.5 K, 514.3 kPa, x1 = 0.8116",23.825 ± 0.089 kg/m3
same,mass density,"300.2 K, 668.8 kPa, x1 = 1",36.434 ± 0.077 kg/m3
same,mass density,"300.21 K, 108 kPa, x1 = 1",5.039 ± 0.059 kg/m3
same,mass density,"300.21 K, 218.9 kPa, x1 = 1",10.489 ± 0.061 kg/m3
same,mass density,"300.21 K, 324 kPa, x1 = 1",15.933 ± 0.064 kg/m3
same,mass density,"300.21 K, 439.4 kPa, x1 = 1",22.291 ± 0.069 kg/m3
same,mass density,"300.21 K, 545.8 kPa, x1 = 1",28.564 ± 0.074 kg/m3
same,mass density,"300.21 K, 702.5 kPa, x1 = 0.0906",16.204 ± 0.054 kg/m3
same,mass density,"300.23 K, 569.7 kPa, x1 = 0.8116",26.154 ± 0.093 kg/m3
same,mass density,"300.24 K, 599.9 kPa, x1 = 0.0906",13.531 ± 0.048 kg/m3
same,mass density,"300.24 K, 701 kPa, x1 = 0.583",27.648 ± 0.092 kg/m3
same,mass density,"300.25 K, 190.5 kPa, x1 = 0.0906",3.98 ± 0.028 kg/m3
same,mass density,"300.25 K, 392.5 kPa, x1 = 0.8116",17.228 ± 0.074 kg/m3
same,mass density,"300.25 K, 396.6 kPa, x1 = 0.0906",8.595 ± 0.037 kg/m3
same,mass density,"300.25 K, 489.8 kPa, x1 = 0.8116",22.015 ± 0.084 kg/m3
same,mass density,"300.25 K, 506.5 kPa, x1 = 0.0906",11.208 ± 0.042 kg/m3
same,mass density,"300.25 K, 600.3 kPa, x1 = 0.583",23.086 ± 0.081 kg/m3
same,mass density,"300.26 K, 102.6 kPa, x1 = 0.583",3.557 ± 0.044 kg/m3
same,mass density,"300.26 K, 104.5 kPa, x1 = 0.0906",2.152 ± 0.026 kg/m3
same,mass density,"300.26 K, 106.3 kPa, x1 = 0.8116",4.378 ± 0.053 kg/m3
same,mass density,"300.26 K, 200.3 kPa, x1 = 0.583",7.077 ± 0.048 kg/m3
same,mass density,"300.26 K, 298.9 kPa, x1 = 0.583",10.761 ± 0.054 kg/m3
same,mass density,"300.26 K, 300 kPa, x1 = 0.0906",6.389 ± 0.032 kg/m3
same,mass density,"300.26 K, 301.1 kPa, x1 = 0.8116",12.94 ± 0.065 kg/m3
same,mass density,"300.26 K, 506.5 kPa, x1 = 0.583",19.062 ± 0.071 kg/m3
same,mass density,"300.27 K, 198.3 kPa, x1 = 0.8116",8.334 ± 0.057 kg/m3
same,mass density,"300.27 K, 400.3 kPa, x1 = 0.583",14.716 ± 0.062 kg/m3
